Structures are written as SMILES. Several values for one entry are separate records, joined by “and”; a condition that tells them apart may be missing. Equal values may be shown once.

The test system of this test is 282377-053-R-J1-PDC complex spheroids, viability. In words: Anticancer human tumor 282377-053-R-J1-PDC patient-derived colon adenocarcinoma cell line growth inhibition [GQUAD]. Particulars: for viability, T/C: stronger effect = lower value. An excerpt:
DNA G-quadruplex Stabilizer Agents in Combinations in Complex Spheroids
A high-throughput screen of multi-cell type tumor spheroids was designed to identify active combinations of DNA G-quadruplex stabilizer agents and targeted small molecules. Complex spheroids include a stromal component modeled by human endothelial cells (HUVEC) and fibroblasts modeled by human mesenchymal stem cells (MSCs). The concentration ranges selected for each drug and investigational agent were based upon clinically achievable concentrations if the clinical Cmax of the agent was known.
Compounds. The drugs and investigational agents: pidnarulex (CX-5461; NSC782164), APTO-253 (NSC789042), BRACO-19 (NSC847499), peposertib (NSC802822), ceralasertib (NSC780249), elimusertib (NSC800525), camonsertib (NSC841442), AZD-1390 (NSC803789), olaparib (NSC753686), talazoparib (NSC767125), ART-558 (NSC835418), sotorasib (NSC818433), MRTX-1133 (NSC836407), SN-38 (NSC673596), topotecan (NSC609699), etoposide (NSC141540), doxorubicin (NSC123127), gemcitabine (NSC613327), 5-fluorouracil (NSC19893), paclitaxel (NSC125973), vemurafenib (NSC761431), panobinostat (NSC761190), R-306465 (JNJ-16241199; NSC773264), adavosertib (NSC754352), TP-3654 (NSC805149), carboplatin (NSC241240), KSQ-4279 (NSC840948), and staurosporine (NSC755774) were obtained from the National Cancer Institute (NCI) Developmental Therapeutics Program Chemical Repository (34). The FDA-approved anticancer drug set is available from the NCI Developmental Therapeutics Program. […] The stock solutions were prepared in dimethyl sulfoxide (DMSO, Sigma-Aldrich, St. Louis, MO, cat. D2650) at 800-fold the tested concentration and stored at -70 degrees C prior to their use. All drugs and investigational agents were tested over a range starting from a high concentration at or near the clinical Cmax and decreasing in half-log increments. If the clinical Cmax for an agent had not been determined, the highest concentration tested was 10 microM.
2.3 Cell Culture. All cells were maintained in an incubator at 37 degrees C and 5% CO2 with 95% humidity. The PDC lines were cultured according to standard operating procedures established by the NCI PDMR. All PDCs were thawed and cultured in Matrigel-coated flasks prepared with a working solution of 1X Ham's F-12 nutrient mix, without supplementation (Invitrogen, cat. 11765054), 100 U/mL penicillin-streptomycin (Invitrogen, cat. 15140122), and 2.5% Matrigel (Corning Inc., cat. 354248) for the first three passages. The 857933-349-R-J2-PDC line was cultured in 6C/Colon 1B media, which includes advanced DMEM/F-12 (Thermo Fisher Scientific, cat. 12634028), 10 mM HEPES (Thermo Fisher Scientific, cat. 15630080), 1X GlutaMAX supplement (Thermo Fisher Scientific, cat. 35050061), 0.1 mg/mL primocin (InvivoGen, cat. ant-pm-2), 10% defined fetal bovine serum, heat inactivated (HyClone Laboratories Inc., cat. SH30070.03HI), 50% L-WRN conditioned media (ATCC, cat. CRL-3276), 1.25 mM N-Acetyl-L-cysteine (Sigma-Aldrich, cat. A9165), 10 mM nicotinamide (Sigma-Aldrich, cat. N0636), 1X B-27 supplement (Thermo Fisher Scientific, cat. 17504044), 1X N-2 supplement (Thermo Fisher Scientific, cat. 17502048), 10 microM Y-27632 dihydrochloride (Tocris Bioscience, cat. 1254), and 50 ng/mL human EGF recombinant protein (Thermo Fisher Scientific, cat. PHG0311). The 485176-168-R4-J1-PDC line was cultured in Panc media, which includes all 6C/Colon 1B media components plus 100 ng/mL human FGF-10 (Thermo Fisher Scientific, cat. 100-26), 500 nM SB-431542 (Selleckchem, cat. S1067), and gastrin (Tocris, cat. 3006).
[…]

[1] abbreviates: curve of first compound, second compound 0.0316 µM.
Where [2] appears, read: curve of first compound, second compound 0.1 µM.
The mark [3] stands for this setting: curve of first compound, second compound 0.316 µM.
Where [4] appears, read: curve of first compound, second compound 1 µM.
[5] abbreviates: curve of first compound, second compound 3.16 µM.
[6] abbreviates: curve of first compound, second compound 10 µM.
[7] abbreviates: second compound 0.0316 µM, first compound 0.0316 µM.
The mark [8] stands for this setting: second compound 0.0316 µM, first compound 0.1 µM.
Where [9] appears, read: second compound 0.0316 µM, first compound 0.316 µM.
[10] abbreviates: second compound 0.0316 µM, first compound 1 µM.
[11] abbreviates: second compound 0.0316 µM, first compound 3.16 µM.
Where [12] appears, read: second compound 0.0316 µM, first compound 10 µM.
Setting [13] is: second compound 0.1 µM, first compound 0.0316 µM.
Where [14] appears, read: second compound 0.1 µM, first compound 0.1 µM.
Where [15] appears, read: second compound 0.1 µM, first compound 0.316 µM.
[16] abbreviates: second compound 0.1 µM, first compound 1 µM.
Setting [17] is: second compound 0.1 µM, first compound 3.16 µM.
Setting [18] is: second compound 0.1 µM, first compound 10 µM.
Where [19] appears, read: second compound 0.316 µM, first compound 0.0316 µM.
Where [20] appears, read: second compound 0.316 µM, first compound 0.1 µM.
The mark [21] stands for this setting: second compound 0.316 µM, first compound 0.316 µM.
[22] abbreviates: second compound 0.316 µM, first compound 1 µM.
Where [23] appears, read: second compound 0.316 µM, first compound 3.16 µM.
Where [24] appears, read: second compound 0.316 µM, first compound 10 µM.
Setting [25] is: second compound 1 µM, first compound 0.0316 µM.
[26] abbreviates: second compound 1 µM, first compound 0.1 µM.
Setting [27] is: second compound 1 µM, first compound 0.316 µM.
The mark [28] stands for this setting: second compound 1 µM, first compound 1 µM.
[29] abbreviates: second compound 1 µM, first compound 3.16 µM.
Setting [30] is: second compound 1 µM, first compound 10 µM.
Where [31] appears, read: second compound 3.16 µM, first compound 0.0316 µM.
Where [32] appears, read: second compound 3.16 µM, first compound 0.1 µM.
The mark [33] stands for this setting: second compound 3.16 µM, first compound 0.316 µM.
Setting [34] is: second compound 3.16 µM, first compound 1 µM.
Setting [35] is: second compound 3.16 µM, first compound 3.16 µM.
Where [36] appears, read: second compound 3.16 µM, first compound 10 µM.
[37] abbreviates: second compound 10 µM, first compound 0.0316 µM.
The mark [38] stands for this setting: second compound 10 µM, first compound 0.1 µM.
The mark [39] stands for this setting: second compound 10 µM, first compound 0.316 µM.
The mark [40] stands for this setting: second compound 10 µM, first compound 1 µM.
Setting [41] is: second compound 10 µM, first compound 3.16 µM.
The mark [42] stands for this setting: second compound 10 µM, first compound 10 µM.
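Further: spheroids exposed to compounds for 7 days before readout.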
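Wherever viability, T/C is given: percent of vehicle DMSO control viability with 100% = untreated-like growth.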

`COc1ncnc(C2CC2)c1-c1ncc2cnn(Cc3ccc(-c4nc(C(F)(F)F)cn4C(C)C)cc3)c2n1`: the viability, T/C was 101% and 109% and 104% (compound 0.0316 µM); 102% and 106% and 78.5% (compound 0.1 µM); 102% and 82.9% and 81.3% (compound 0.316 µM); 109% and 91.4% and 78.3% (compound 1 µM); 106% and 86.4% and 75.8% (compound 3.16 µM). Also, for the setting “curve of compound”, the IC50 was > 10 µM and 5.29 µM.
Consider `Cc1cccc(N(C)C(=O)C2C(O)CCN2c2nc(C)cc(C(F)(F)F)c2C#N)c1` (stereo not drawn), for which the viability, T/C reads like this: (compound 0.0316 µM) 121% and 97.5% and 105%; (compound 0.1 µM) 83% and 85.8% and 99.7%; (compound 0.316 µM) 103% and 89.3% and 99.5%; (compound 1 µM) 89.3% and 97.7% and 105%; (compound 3.16 µM) 98.2% and 99.2% and 94.4%; (compound 10 µM) 80.9% and 80.7% and 90.8%. In addition, the IC50 (curve of compound) was over 10 µM.
As for `C=CC(=O)N1CCN(c2nc(=O)n(-c3c(C)ccnc3C(C)C)c3nc(-c4c(O)cccc4F)c(F)cc23)C(C)C1` (stereo not drawn), the viability, T/C runs as follows: (compound 0.0316 µM) 114% and 108% and 103%; (compound 0.1 µM) 92.4% and 90.8% and 92.9%; (compound 0.316 µM) 104% and 91.5% and 93.6%; (compound 1 µM) 91.5% and 93.8% and 96.1%; (compound 3.16 µM) 105% and 95.6% and 103%; (compound 10 µM) 97.3% and 80.3% and 106%. Besides, the IC50 (curve of compound) is over 10 µM.
With `C#Cc1c(F)ccc2cc(O)cc(-c3ncc4c(N5CC6CCC(C5)N6)nc(OCC56CCCN5CC(F)C6)nc4c3F)c12` (stereo not drawn), the viability, T/C is 103% and 112% and 90.1% (compound 0.0316 µM); 102% and 93.9% and 80.2% (compound 0.1 µM); 110% and 81.1% and 95.1% (compound 0.316 µM); 86.2% and 90.6% and 93.1% (compound 1 µM); 101% and 33.1% and 95.4% (compound 3.16 µM); 82.8% and 42.6% and 77.7% (compound 10 µM). Besides, the IC50 (curve of compound) was > 10 µM and 2.42 µM.
As for `CC(C)n1c(=O)n(C)c2cnc3cc(F)c(-c4ccc(OCCCN5CCCCC5)nc4)cc3c21` + Cc1cnc(CNC(=O)c2c(=O)c3ccc(N4CCCN(C)CC4)nc3n3c2sc2ccccc23)cn1, the IC50 under setting [1] was over 10 µM; the IC50 under setting [2] is over 10 µM; the IC50 under setting [3] was over 10 µM; the IC50 under setting [4] was under 0.0316 µM; the IC50 under setting [5] is under 0.0316 µM; the concentration for half-maximal inhibition (IC50) under setting [6] is under 0.0316 µM. Further, the viability, T/C by setting is: under setting [7], 101%; under setting [8], 76.5%; under setting [9], 102%; under setting [10], 76.5%; under setting [11], 94%; under setting [12], 86.5%. Besides, the viability, T/C by setting is: under setting [13], 84.7%; under setting [14], 80.2%; under setting [15], 81.3%; under setting [16], 90.2%; under setting [17], 83.7%; under setting [18], 72.6%. The viability, T/C under setting [19] was 69.2%; the viability, T/C under setting [20] was 61.9%; the viability, T/C under setting [21] is 70.9%; the viability, T/C under setting [22] was 76.2%; the viability, T/C under setting [23] is 78.5%; the viability, T/C under setting [24] was 64.2%. Moreover, the viability, T/C is 47.4% under setting [25]; 48.3% under setting [26]; 49.9% under setting [27]; 46.6% under setting [28]; 56.8% under setting [29]; 67.7% under setting [30]. In addition, the viability, T/C runs as follows: under setting [31], 48.9%; under setting [32], 45.8%; under setting [33], 51.6%; under setting [34], 43.7%; under setting [35], 53.5%; under setting [36], 45.9%. For the same compound, the viability, T/C reads like this: under setting [37], 44.6%; under setting [38], 33.5%; under setting [39], 39.9%; under setting [40], 45%; under setting [41], 40.6%; under setting [42], 23.5%.
For the compound `CC(C)n1c(=O)n(C)c2cnc3cc(F)c(-c4ccc(OCCCN5CCCCC5)nc4)cc3c21` + CN(C)c1ccc(Nc2c3ccc(NC(=O)CCN4CCCC4)cc3nc3cc(NC(=O)CCN4CCCC4)ccc23)cc1, the 50% inhibitory concentration (IC50) was over 10 µM under setting [1]; over 10 µM under setting [2]; over 10 µM under setting [3]; over 10 µM under setting [4]; over 10 µM under setting [5]; over 10 µM under setting [6]. Also, the viability, T/C reads like this: under setting [7], 97.9%; under setting [8], 108%; under setting [9], 102%; under setting [10], 106%; under setting [11], 104%; under setting [12], 101%. Besides, the viability, T/C was 92.5% under setting [13]; 101% under setting [14]; 89.5% under setting [15]; 108% under setting [16]; 89.4% under setting [17]; 90.9% under setting [18]. Also, the viability, T/C by setting is: under setting [19], 100%; under setting [20], 107%; under setting [21], 108%; under setting [22], 103%; under setting [23], 88.3%; under setting [24], 101%. The viability, T/C is, setting by setting: under setting [25], 106%; under setting [26], 96.8%; under setting [27], 99.7%; under setting [28], 94.4%; under setting [29], 105%; under setting [30], 91%. Also, the viability, T/C reads like this: under setting [31], 113%; under setting [32], 108%; under setting [33], 102%; under setting [34], 114%; under setting [35], 110%; under setting [36], 108%. The viability, T/C runs as follows: under setting [37], 106%; under setting [38], 102%; under setting [39], 110%; under setting [40], 99.7%; under setting [41], 97.7%; under setting [42], 57.7%.
For `O=c1[nH]cc(F)c(=O)[nH]1`, the viability, T/C was 94.9% and 109% and 94.2% (compound 0.0316 µM); 107% (2×) and 88.7% (compound 0.1 µM); 107% and 102% and 96.5% (compound 0.316 µM); 88.8% and 92.9% and 94.9% (compound 1 µM); 87.9% and 80.7% and 79.4% (compound 3.16 µM); 80.8% and 69.7% and 70.6% (compound 10 µM). Besides, the IC50 (curve of compound) was over 10 µM.

(Values after PubChem BioAssay AID2060501 (Molecular Pharmacology Branch, DTP, NCI, 2025).)
